Source: US20130310379A1, “MODULATORS OF METHYL MODIFYING ENZYMES, COMPOSITIONS AND USES THEREOF” (CONSTELLATION PHARMACEUTICALS, priority 2010, published 2013)

Molecular target: EZH2 (Homo sapiens, UniProt Q15910)
Assay: EZH2 assay: rPRC2 with biotinylated oligonucleosome substrates and 3H SAM, FlashPlate scintillation counting, IC50
Assay type: biochemical
Conditions: rPRC2, biotinylated oligonucleosome substrates, 3H SAM; read-out: EZH2 IC50
How it was run: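 IC50 from 4-parameter fit, baselines fixed at 0 and 100%. Compounds (top 80 uM, 2-fold series to 0.16 uM) pre-incubated 20 min with 2 nM EZH2-PRC2; 60-min methylation in pH 8.5 Tris with 0.2 uM 3H SAM, 0.2 uM oligonucleosomes, 3.6 uM H3K27me3 peptide.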

EZH2, sequence (Q15910 whole entry): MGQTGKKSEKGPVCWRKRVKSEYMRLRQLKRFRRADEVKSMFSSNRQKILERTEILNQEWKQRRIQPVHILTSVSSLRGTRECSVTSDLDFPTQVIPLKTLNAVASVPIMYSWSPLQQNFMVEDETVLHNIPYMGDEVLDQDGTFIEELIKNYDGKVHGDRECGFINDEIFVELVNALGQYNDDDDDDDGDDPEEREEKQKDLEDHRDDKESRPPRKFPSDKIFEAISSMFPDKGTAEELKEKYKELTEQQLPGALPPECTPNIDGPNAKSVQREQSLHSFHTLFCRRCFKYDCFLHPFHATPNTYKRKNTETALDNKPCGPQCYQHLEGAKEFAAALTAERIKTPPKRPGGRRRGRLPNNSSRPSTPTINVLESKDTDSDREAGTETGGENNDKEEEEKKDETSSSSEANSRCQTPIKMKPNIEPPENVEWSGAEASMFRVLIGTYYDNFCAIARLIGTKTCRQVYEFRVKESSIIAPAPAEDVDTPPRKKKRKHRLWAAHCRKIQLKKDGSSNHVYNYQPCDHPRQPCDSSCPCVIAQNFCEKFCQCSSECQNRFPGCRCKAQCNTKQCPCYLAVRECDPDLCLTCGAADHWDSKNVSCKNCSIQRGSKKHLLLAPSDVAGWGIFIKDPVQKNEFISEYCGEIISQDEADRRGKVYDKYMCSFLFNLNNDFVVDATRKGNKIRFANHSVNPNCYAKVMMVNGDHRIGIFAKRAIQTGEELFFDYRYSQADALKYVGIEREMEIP
EZH2, sequence (O75530 whole entry partner): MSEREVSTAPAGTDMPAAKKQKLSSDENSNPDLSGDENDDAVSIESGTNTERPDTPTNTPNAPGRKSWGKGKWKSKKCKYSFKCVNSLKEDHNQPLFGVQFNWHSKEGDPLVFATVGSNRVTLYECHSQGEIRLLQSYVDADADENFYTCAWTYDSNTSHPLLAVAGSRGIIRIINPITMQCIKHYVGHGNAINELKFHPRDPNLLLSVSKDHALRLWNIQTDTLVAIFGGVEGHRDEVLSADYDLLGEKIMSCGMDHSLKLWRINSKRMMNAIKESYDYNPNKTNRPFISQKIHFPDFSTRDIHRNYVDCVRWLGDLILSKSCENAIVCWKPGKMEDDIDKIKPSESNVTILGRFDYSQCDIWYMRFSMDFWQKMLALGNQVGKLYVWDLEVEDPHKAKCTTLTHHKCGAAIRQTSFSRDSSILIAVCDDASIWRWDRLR
EZH2, sequence (Q15022 whole entry partner): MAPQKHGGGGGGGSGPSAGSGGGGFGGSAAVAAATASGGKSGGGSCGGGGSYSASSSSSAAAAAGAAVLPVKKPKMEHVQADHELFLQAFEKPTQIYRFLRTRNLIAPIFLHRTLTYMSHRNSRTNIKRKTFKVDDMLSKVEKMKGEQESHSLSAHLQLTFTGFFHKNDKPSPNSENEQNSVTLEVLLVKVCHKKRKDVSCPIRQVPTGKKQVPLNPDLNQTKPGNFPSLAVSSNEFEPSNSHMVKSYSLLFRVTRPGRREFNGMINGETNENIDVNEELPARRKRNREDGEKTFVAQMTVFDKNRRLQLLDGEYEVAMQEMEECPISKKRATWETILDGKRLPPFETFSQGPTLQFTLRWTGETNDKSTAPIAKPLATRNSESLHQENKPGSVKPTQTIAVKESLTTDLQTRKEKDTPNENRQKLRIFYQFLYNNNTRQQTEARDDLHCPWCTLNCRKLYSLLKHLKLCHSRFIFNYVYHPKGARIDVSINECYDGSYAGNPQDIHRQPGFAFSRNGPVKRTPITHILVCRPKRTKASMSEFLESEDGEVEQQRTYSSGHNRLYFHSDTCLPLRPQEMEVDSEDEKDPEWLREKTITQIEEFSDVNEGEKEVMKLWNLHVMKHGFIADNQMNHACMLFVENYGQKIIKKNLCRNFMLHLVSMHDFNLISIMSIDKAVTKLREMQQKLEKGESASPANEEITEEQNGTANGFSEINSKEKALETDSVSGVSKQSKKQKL

| IC50 | Structure (SMILES) |
| --- | --- |
| 20 to 80 µM | CC1(C)CC(NC(=O)c2ccc(SC3CCCCC3)cc2)CC(C)(C)N1 [Compound I-145] |
| 20 to 80 µM | CC1(C)CC(NC(=O)c2ccc(Oc3ccccc3CN3CCCC3)cc2)CC(C)(C)N1 [Compound I-250] |
| > 80 µM | CC1(C)CC(NC(=O)c2ccc(Oc3ccccc3C(=O)N3CCCC3)c(Cl)c2)CC(C)(C)N1 [Compound I-233] |
| < 5 µM | CC1(C)CC(C#N)(NC(=O)c2ccc(Oc3cccc(-c4ccnnc4)c3C#N)c(Cl)c2)CC(C)(C)N1 [Compound I-456] |
| 20 to 80 µM | CC1(C)CC(NC(=O)c2ccc(Oc3cccc(O)c3)cc2)CC(C)(C)N1 [Compound I-29] |
| 5 to 20 µM | CC1(C)CC(NC(=O)c2ccc(Oc3ccccc3OCc3ccccn3)cc2)CC(C)(C)N1 [Compound I-231] |
| < 5 µM | CC1(C)CC(NC(=O)c2cnc(Oc3cccc(-c4cn[nH]c4)c3C#N)c(Cl)c2)CC(C)(C)N1 [Compound I-435] |
| > 80 µM | CC1(C)CNCCC1NC(=O)c1ccc(Oc2ccccc2C#N)c(Cl)c1 (centres unmarked) [Compound I-406] |
| > 80 µM | CC1(C)CC(NC(=O)N2CCC(Oc3ccccc3C#N)CC2)CC(C)(C)N1 [Compound I-442] |
| > 80 µM | COc1ccc(Oc2ccc(C(=O)NC3CC(C)(C)NC(C)(C)C3)cc2)cc1 [Compound I-97] |
| > 80 µM | Cc1ccccc1OCc1ccc(C(=O)NC2CC(C)(C)NC(C)(C)C2)cc1 [Compound I-74] |
| < 5 µM | CC1(C)CC(NC(=O)c2ccc(Oc3ccccc3C#N)c(-c3ccsc3)c2)CC(C)(C)N1 [Compound I-212] |
| > 80 µM | CC1(C)CC(NC(=O)c2ccc(COc3cccnc3Cl)cc2)CC(C)(C)N1 [Compound I-77] |
| > 80 µM | CN(C)C(=O)Cc1cccc(Oc2ccc(C(=O)NC3CC(C)(C)NC(C)(C)C3)cc2Cl)c1C#N [Compound I-464] |
| < 5 µM | Cn1cc(-c2ccccc2Oc2ccc(C(=O)NC3CC(C)(C)NC(C)(C)C3)cc2Cl)nn1 [Compound I-363] |
| > 80 µM | N#CCN1CCC(NC(=O)c2ccc(Oc3cccc(-c4ccnnc4)c3C#N)c(Cl)c2)CC1 [Compound I-475] |
| 5 to 20 µM | CC1(C)CC(NC(=O)c2ccc(Oc3ccccc3)c(Br)c2)CC(C)(C)N1 [Compound I-144] |
| > 80 µM | CC1(C)CC(NC(=O)c2ccc(OC3CNC3)c(Cl)c2)CC(C)(C)N1 [Compound I-392] |
| 20 to 80 µM | CNC(=O)c1ccccc1Oc1ccc(C(=O)NC2CC(C)(C)NC(C)(C)C2)cc1Cl [Compound I-285] |
| 20 to 80 µM | CC1(C)CC(NC(=O)c2ccc(Oc3ccccc3Cl)cc2)CC(C)(C)N1 [Compound I-28] |
| < 5 µM | CC1(C)CC(NC(=O)c2ccc(COc3cccc4c3CCCC4)cc2)CC(C)(C)N1 [Compound I-188] |
| 20 to 80 µM | CC1(C)CC(NC(=O)c2ccc(COc3cccc(-c4cncc(C#N)c4)c3)cc2)CC(C)(C)N1 [Compound I-33] |
| > 80 µM | CC1(C)CC(NC(=O)c2ccc(Oc3ccc(Br)cc3)cc2)CC(C)(C)N1 [Compound I-93] |
| 20 to 80 µM | CC1(C)CC(NC(=O)c2ccc(Oc3cccc(-c4ccnnc4)c3C#N)c(Cl)c2)CC(=O)N1 (centres unmarked) [Compound I-519] |

| IC50 | Structure (SMILES) |
| --- | --- |
| 20 to 80 µM | CC1(C)CC(NC(=O)c2ccc(Oc3cccc(-c4cnc(N)nc4)c3)cc2)CC(C)(C)N1 [Compound I-251] |
| < 5 µM | CC1(C)CC(NC(=O)c2ccc(Oc3ccccc3C#N)c(Cc3ccccc3)c2)CC(C)(C)N1 [Compound I-201] |
| > 80 µM | CNCc1cccc(Oc2ccc(C(=O)NC3CC(C)(C)NC(C)(C)C3)cc2Cl)c1 [Compound I-425] |
| 5 to 20 µM | Cc1cc(C)cc(OCc2ccc(C(=O)NC3CC(C)(C)NC(C)(C)C3)cc2)c1 [Compound I-9] |
| < 5 µM | Cc1cncc(-c2cccc(Oc3ccc(C(=O)NC4CC(C)(C)NC(C)(C)C4)cc3Cl)c2C#N)c1 [Compound I-360] |
| 20 to 80 µM | CC1(C)CC(NC(=O)c2ccc(Oc3cccc(Br)c3)cc2)CC(C)(C)N1 [Compound I-180] |
| 20 to 80 µM | CC1(C)CC(NC(=O)c2ccc(Oc3ccccc3C#N)c(Cl)c2)C(F)(F)C(C)(C)N1 (centres unmarked) [Compound I-418] |
| 20 to 80 µM | CC1(C)CC(NC(=O)c2ccc(COc3cccc(-c4cccnc4N)c3)cc2)CC(C)(C)N1 [Compound I-47] |
| < 5 µM | CC1(C)CC(NC(=O)c2ccc(Oc3cccc(-c4cncs4)c3C#N)c(Cl)c2)CC(C)(C)N1 [Compound I-371] |
| > 80 µM | CC(C)NC(=O)c1ccc(Oc2ccccc2)cc1 [Compound I-96] |
| > 80 µM | COc1ccc(Oc2ccc(C(=O)NC3CC(C)(C)NC(C)(C)C3)cc2)c(C#N)c1 [Compound I-177] |
| > 80 µM | CC1(C)CC(NC(=O)c2ccc(Oc3cccc(C(=O)O)c3)c(Cl)c2)CC(C)(C)N1 [Compound I-354] |
| 20 to 80 µM | CC1(C)CC(NC(=O)c2ccc(Oc3ccccc3C#N)cc2Cl)CC(C)(C)N1 [Compound I-174] |
| 20 to 80 µM | N#Cc1c(Oc2ccc(C(=O)NC3CCN(CCO)CC3)cc2Cl)cccc1-c1ccnnc1 [Compound I-474] |
| > 80 µM | CC1(C)CC(NC(C(=O)O)c2ccc(Oc3ccccc3C#N)c(Cl)c2)CC(C)(C)N1 (centres unmarked) [Compound I-483] |
| > 80 µM | CC1(C)CC(NC(=O)c2ccc(COc3ccccc3C#N)cc2)CC(C)(C)N1 [Compound I-240] |
| < 5 µM | Cc1noc(C)c1-c1cccc(Oc2ccc(C(=O)NC3CC(C)(C)NC(C)(C)C3)cc2Cl)c1C#N [Compound I-463] |
| < 5 µM | CC1(C)CC(NC(=O)c2ccc(Oc3cccc(OCC(N)=O)c3C#N)c(Cl)c2)CC(C)(C)N1 [Compound I-487] |
| 20 to 80 µM | CC1(C)CC(NC(=O)c2ccc(SCc3ccccc3)cc2)CC(C)(C)N1 [Compound I-45, 4-(Benzylthio)-N-(2,2,6,6-tetramethylpiperidin-4-yl)benzamide] |
| 20 to 80 µM | CC1(C)CC(C)(NC(=O)c2ccc(Oc3cccc(-c4ccnnc4)c3C#N)c(Cl)c2)CC(C)(C)N1 [Compound I-507] |
| > 80 µM | CC(c1ccccc1C#N)N1CCN(C(=O)NC2CC(C)(C)NC(C)(C)C2)CC1 (centres unmarked) [Compound I-454] |
| 5 to 20 µM | Cc1cncc(-c2cccc(OCc3ccc(C(=O)NC4CC(C)(C)NC(C)(C)C4)cc3)c2)c1 [Compound I-13, 4-((3-(5-methylpyridin-3-yl)phenoxy)methyl)-N-(2,2,6,6-tetramethylpiperidin-4-yl)benzamide] |
| > 80 µM | Cc1cccc(C)c1Oc1ccc(C(=O)NC2CC(C)(C)NC(C)(C)C2)cc1 [Compound I-69] |
